# Assay results as given in patent US9757399B2, “Butyrylcholinesterase inhibitors” (priority 2006, dated 2017).
# Where two headings read alike, the source gives them in different places.
# How the values were obtained:
# [1] = tested on: human umbilical cells; type: in vitro ADME
# Experimental: Also, the uptake of di-n-butyl-2-chlorophenyl phosphate by human umbilical cells was measured after […] for both undifferentiated cells and differentiating neurons. (Table 6)
# [2] = biological target: S6K2 (Homo sapiens, UniProt Q9UBS0); assay: S6K2 activity (GST-S6 substrate, Pro-Q stain); type: biochemical; conditions: varying concentrations, 30 minutes on ice, then ATP 30° C. 15 minutes
# Chain of S6K2 (Q9UBS0 whole entry, looked up): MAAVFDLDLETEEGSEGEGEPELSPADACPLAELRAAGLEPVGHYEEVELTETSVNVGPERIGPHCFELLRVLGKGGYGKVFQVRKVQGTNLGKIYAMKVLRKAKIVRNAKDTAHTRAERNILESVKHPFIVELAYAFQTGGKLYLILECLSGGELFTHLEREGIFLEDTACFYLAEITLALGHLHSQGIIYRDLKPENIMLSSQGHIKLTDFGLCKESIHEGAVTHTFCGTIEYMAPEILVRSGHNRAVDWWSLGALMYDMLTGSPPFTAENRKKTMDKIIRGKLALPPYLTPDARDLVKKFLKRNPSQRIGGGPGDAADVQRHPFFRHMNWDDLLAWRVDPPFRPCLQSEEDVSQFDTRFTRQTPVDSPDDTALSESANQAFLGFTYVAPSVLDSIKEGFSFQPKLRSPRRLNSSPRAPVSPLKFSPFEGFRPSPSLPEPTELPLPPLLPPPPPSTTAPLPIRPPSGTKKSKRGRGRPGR
# Experimental: For protein kinase activity, histone was used as the substrate for protein kinase A (PKA) and glutathione-S-transferase-S6 (GST-S6) for S6K2. Enzyme was pre-incubated with substrate and varying concentrations of inhibitor on ice for 30 minutes. The control sample contained solvent (methanol). ATP was then added to each sample and the cocktail incubated at 30° C. for 15 minutes. Equal amounts of each mixture were fractionated by SDS-PAGE on a 10% acrylamide gel. The gel was fixed in 50% methanol/10% acetic acid, washed with water, and then stained in Pro-Q Stain in the dark for 60 minutes. The gel was then destained, washed, and scanned on a Typhoon Imager (FIG. 5).
# [3] = tested on: trypsin; assay: Trypsin activity (BAEE hydrolysis); type: biochemical; conditions: 10 μM, 60 minutes at 25° C.
# Experimental: The effect of DB2ClPP (di-n-butyl 2-chlorophenyl phosphate) on the activity of trypsin was assayed. Trypsin was incubated with solvent, 10 μM DB2CPP, or 10 μM DIFP (a known inhibitor of trypsin) for 60 minutes at 25° C. to determine any inhibitory effect of DB2CPP on enzymatic activity. Enzyme activity is given as nmoles of BAEE hydrolyzed per minute at 25° C. Data shown are the mean of three replicates ±SEM. (FIG. 3)
# [4] = tested on: porcine umbilical stem cells; type: cell-based; conditions: increasing concentrations, 48 hours, Neurobasal Medium
# Experimental: Porcine umbilical stem cells were cultured in Neurobasal Medium supplemented with B27 (Invitrogen) and antibiotics for various periods of with varying concentrations of di-n-butyl-2-chlorophenyl phosphate. Cells were collected, washed, counted, and analyzed for viability by Trypan Blue staining.
# [5] = biological target: T1, butyrylcholinesterase (from horse serum) (Equus caballus, UniProt P81908); assay: Rates of inactivation of butyrylcholinesterase, Ellman assay; type: biochemical; conditions: 100 nM inhibitor, 25° C.
# T1 construct: butyrylcholinesterase (from horse serum); purchased Sigma; host or cells: horse serum (natural source)
# T1 sequence (P81908 whole entry): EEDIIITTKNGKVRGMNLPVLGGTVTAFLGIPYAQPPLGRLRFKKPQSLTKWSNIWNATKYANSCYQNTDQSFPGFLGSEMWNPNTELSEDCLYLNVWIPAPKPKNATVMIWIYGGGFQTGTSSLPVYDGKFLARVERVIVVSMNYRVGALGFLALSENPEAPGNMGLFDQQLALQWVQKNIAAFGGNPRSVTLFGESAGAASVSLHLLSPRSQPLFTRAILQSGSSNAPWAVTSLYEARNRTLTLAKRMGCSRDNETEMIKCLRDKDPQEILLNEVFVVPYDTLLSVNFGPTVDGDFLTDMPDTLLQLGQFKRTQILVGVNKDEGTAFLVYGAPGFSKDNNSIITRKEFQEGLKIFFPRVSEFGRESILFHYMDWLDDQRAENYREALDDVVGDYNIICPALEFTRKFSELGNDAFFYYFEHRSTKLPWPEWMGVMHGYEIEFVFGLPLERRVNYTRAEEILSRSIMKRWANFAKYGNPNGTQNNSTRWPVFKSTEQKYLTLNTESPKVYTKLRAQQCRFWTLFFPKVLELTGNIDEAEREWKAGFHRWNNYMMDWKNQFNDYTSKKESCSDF
# Experimental: Acetylcholinesterase (from electric eel), butyrylcholinesterase (from horse serum), DTNB, butyrylthiocholine, acetylthiocholine, and BSA were purchased from Sigma. The dialkyl 2-chlorophenyl (and 4-chlorophenyl) phosphates were solubilized in reagent grade methanol.
# Cholinesterase activity measurements were performed essentially according to the method of Ellman (Biochemical Pharmacology 7:88-90, 1961). The composition of the assay mixture was 0.1 M sodium phosphate, pH 7.5, 0.033 M DTNB, 0.001 M MgCl2, and 100 μg/mL of BSA containing appropriate amounts of substrate and inhibitor. Each assay was initiated by the addition of substrate and the activity quantified by measuring the formation of the thionitrobenzoate anion at 412 nm at 37° C. Methanol used to solubilize the dialkyl phenyl phosphates [1% (v/v) final concentration] had no inhibitory effect on either enzyme.
# Butyrylcholinesterase was pre-incubated at room temperature with inhibitor in the assay cocktail minus substrate for varying periods of time at 25° C. Substrate was then added and the activity measured as described above. The relative rates of enzyme inactivation were determined by plotting enzyme activity versus time of pre-incubation with inhibitor. Results were expressed as the rate constant for the rate of enzyme inactivation. In the case of AcChase, results were expressed as the % of activity remaining relative to the enzyme incubated only with solvents.
# . […] In Table 2, BuChase was incubated for increasing periods of time at 25° C. with 100 nM inhibitor then assayed for activity as described above. Rate constants were calculated from a plot of enzyme activity vs. time of inhibitor exposure. […]. Slopes were calculated by linear regression analysis.
structure (smiles),measurement,setting,value
"CCCCOP(=O)(OCCCC)Oc1ccccc1Cl [DB2ClPP, Di-n-butyl 2-chlorophenyl phosphate]","uptake, fg/cell","[1]; Neurons, 0 hours",78.85 ± 8.04 fg/cell
same,"uptake, fg/cell","[1]; Neurons, 24 hours",820.52 ± 82.32 fg/cell
same,"uptake, fg/cell","[1]; Undifferentiated cells, 0 hours",114.72 ± 37.93 fg/cell
same,"uptake, fg/cell","[1]; Undifferentiated cells, 24 hours",795.89 ± 202.41 fg/cell
same,effect on S6K2 activity (FIG. 5),[2],none of the above mentioned enzymes were affected
same,effect on trypsin activity (FIG. 3),[3],none of the above mentioned enzymes were affected
same,effect on mortality of porcine umbilical stem cells (FIG. 7),[4],did not have any significant effect on mortality
same,"k, rate constant of inactivation of butyrylcholinesterase ± S.E.M",[5],64.76 ± 3.0 min^−1 × 10^−2
